Measurements from US20230398153A1, “A METHOD FOR EFFICIENT MICROGLIA REPLACEMENT” (The Board of Trustees of the Leland Stanford Junior …, priority 2020, published 2023).

Assays:
[1] = tested on: endogenous microglia; assay: Depletion of endogenous microglia by PLX5622 diet; assay type: in vivo, mouse; settings: PLX5622 diet for 21 days
Source text: FIG. 8. Circulation-derived myeloid cells adopt a ramified microglia-like morphology upon brain engraftment. (A and B) Flow cytometry gating for analysis of donor chimerism in PB leukocytes (CD45+) (A) and brain myeloid cells (CD45+CD11b+)(B). (C) Representative images of circulation-derived myeloid cells (CDMCs)([…]) and host microglia (Iba-1+GFP−) cells and DAPI in the cortex of recipient mice at the indicated time points. Scale bars:50 μm. (D) Representative images of Iba-1+ cells in the cortex of mice treated with control or PLX5622 diet for 21 days. The right panels in each group are enlarged images of the boxed areas in the left panels. Scale bars: […]. (E) Iba-1+ cell density in the indicated brain regions was analyzed by microscopy (Mean±SEM, n=3/group, 6 brain slices/animal were quantified. ***p<0.001, Student's t-test). […]
Immunofluorescence microscopy. […] Images were obtained using a Zeiss LSM710 confocal microscope or Zeiss AxioImager motorized widefield fluorescence microscope.
Image analysis. […] For morphological analyses, Iba1+ cells and GFP+ cells in the indicated brain regions were analyzed. The number of Iba1+ cells, and number of branch points were manually counted using ImageJ. […] The length of processes in Iba-1+ cells was analyzed semi-automatically using NeuronJ plugin. The ratio of cell body to total cell area was analyzed using FracLac plugin as described. […]

[2] = tested on: endogenous microglia; assay: Direct intracerebral injection of GFP bone marrow cells with or without PLX5622 pre-treatment; assay type: in vivo, mouse; settings: 21-day PLX5622 pre-treatment; 14 days post IC injection
Description: FIG. 1. Microglia replacement after bone marrow transplantation is a slow, inefficient and variable process. (A) Schematic overview of bone marrow transplantation (HSCT). Recipient mice were received intraperitoneal (IP) injection of busulfan for 5 days at 25 mg/kg/day (i.e. 125 mg/kg total dose) and then transplanted with GFP-expressing bone marrow cells via intravenous (IV) injection. Donor chimerism in peripheral blood (PB) and brain myeloid cells was analyzed at the indicated time points. (B and C) Donor chimerism in PB leukocytes (CD45+ cells) and brain myeloid cells (CD45+CD11b+ cells) was analyzed by flow cytometry at the indicated time point. […] GFP chimerism in PB leukocytes (B) (Mean±SEM, n=5-20/time point, ***p<0.001, ns: not significant, ANOVA). GFP chimerism in brain myeloid cells (C) (Mean±SEM, n=5/time point, *p<0.05, **p<0.01, ns: not significant, ANOVA). (D) Flow cytometry analysis of GFP+bone marrow cells 14 days after direct intracerebral (IC) injection with (bottom) and without (top) PLX5622 pre-treatment of recipient mice. […] (F) Quantification of transplanted GFP+bone marrow cells in coronal brain sections. […] Horizontal bars represent mean values (n=3/group, 3 brain slices/animal were quantified. **p<0.01, ***p<0.001, Student's t-test). […] (H) Microglia chimerism was analyzed by flow cytometry 14 days post IV injection. […]

## COc1ncc(F)cc1CNc1ccc(Cc2c[nH]c3ncc(C)cc23)c(F)n1 [PLX5622]
[1]
  elimination of endogenous microglia (Iba-1+ cell density): efficient elimination of endogenous microglia throughout the brain
[2]
  fate of bone marrow cells injected into the brain: adopted microglia-like morphologies, expressed the microglial marker Iba-1, were more numerous, and dispersed wider into the brain parenchyma
